Toxic doses and inconclusive results are not listed.
Tested on: CD2F1 mice, L1210 leukemia ip, survival T/C
Assay: NCI In Vivo Anticancer Drug Screen. Data for tumor model L1210 Leukemia (intraperitoneal) in CD2F1 (CDF1) mice
Settings: higher = longer survival
Procedure, shortened: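 Transplantable tumor in mice; compound-treated vs vehicle-treated groups. Read-out = treated/control ratio of the measured endpoint.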

[1] = endpoint: mean survival time, dose: 100.0 mg/kg/injection, schedule: Q01DX009 (ip), vehicle: saline with Tween-80
[2] = endpoint: mean survival time, dose: 100.0 mg/kg/injection, schedule: Q04DX003 (ip), vehicle: saline with Tween-80
[3] = endpoint: mean survival time, dose: 200.0 mg/kg/injection, schedule: Q01DX009 (ip), vehicle: saline with Tween-80
[4] = endpoint: mean survival time, dose: 200.0 mg/kg/injection, schedule: Q04DX003 (ip), vehicle: saline with Tween-80
[5] = endpoint: mean survival time, dose: 400.0 mg/kg/injection, schedule: Q04DX003 (ip), vehicle: saline with Tween-80

CC(=O)Nc1nc(C)c(CCCOc2ccc([N+](=O)[O-])cc2)c(=O)[nH]1
T/C (endpoint: mean survival time, dose: 50.0 mg/kg/injection, schedule: Q01DX009 (ip), vehicle: Klucel (hydroxypropylcellulose) (HPC)): 97 % of control | T/C (endpoint: mean survival time, dose: 100.0 mg/kg/injection, schedule: Q01DX009 (ip), vehicle: Klucel (hydroxypropylcellulose) (HPC)): 90 % of control | T/C (endpoint: mean survival time, dose: 200.0 mg/kg/injection, schedule: Q01DX009 (ip), vehicle: Klucel (hydroxypropylcellulose) (HPC)): 90 % of control

c1ccc2c(c1)NCCN2
T/C (endpoint: mean survival time, dose: 25.0 mg/kg/injection, schedule: Q01DX001 (ip), vehicle: saline + alcohol): 100 % of control | T/C (endpoint: mean survival time, dose: 50.0 mg/kg/injection, schedule: Q01DX001 (ip), vehicle: saline + alcohol): 100 % of control | T/C (endpoint: mean survival time, dose: 100.0 mg/kg/injection, schedule: Q01DX001 (ip), vehicle: saline + alcohol): 106 % of control

CCN(CC)CCNc1nc(-c2cc(C(F)(F)F)cc(C(F)(F)F)c2)nc(C(Cl)(Cl)Cl)n1
T/C (endpoint: mean survival time, dose: 100.0 mg/kg/injection, schedule: Q01DX005 (ip), vehicle: saline): 100 % of control | T/C (endpoint: mean survival time, dose: 100.0 mg/kg/injection, schedule: Q01DX009 (ip), vehicle: saline): 93 % of control | T/C (endpoint: mean survival time, dose: 200.0 mg/kg/injection, schedule: Q01DX005 (ip), vehicle: saline): 103 % of control | T/C (endpoint: mean survival time, dose: 200.0 mg/kg/injection, schedule: Q01DX009 (ip), vehicle: saline): 93 % of control | T/C (endpoint: mean survival time, dose: 400.0 mg/kg/injection, schedule: Q01DX005 (ip), vehicle: saline): 95 % of control | T/C (endpoint: mean survival time, dose: 400.0 mg/kg/injection, schedule: Q01DX009 (ip), vehicle: saline): 93 % of control

C=CCCCCCCCCC(=O)N(CC#N)CC(C)C
T/C [1]: 104 % of control | T/C [2]: 96 % of control | T/C [3]: 96 % of control | T/C [4]: 100 % of control | T/C [5]: 94 % of control

CN(Cc1ccccc1)/N=N/c1nc[nH]c1C(N)=O
T/C (endpoint: mean survival time, dose: 4.0 mg/kg/injection, schedule: Q01DX009 (ip), vehicle: Klucel (hydroxypropylcellulose) (HPC)): 98 % of control | T/C (endpoint: mean survival time, dose: 8.0 mg/kg/injection, schedule: Q01DX009 (ip), vehicle: Klucel (hydroxypropylcellulose) (HPC)): 98 % of control | T/C (endpoint: mean survival time, dose: 16.1 mg/kg/injection, schedule: Q01DX009 (ip), vehicle: Klucel (hydroxypropylcellulose) (HPC)): 102 % of control | T/C (endpoint: mean survival time, dose: 32.2 mg/kg/injection, schedule: Q01DX009 (ip), vehicle: Klucel (hydroxypropylcellulose) (HPC)): 106 % of control | T/C (endpoint: mean survival time, dose: 129.0 mg/kg/injection, schedule: Q01DX009 (ip), vehicle: Klucel (hydroxypropylcellulose) (HPC)): 95 % of control | T/C (endpoint: mean survival time, dose: 258.0 mg/kg/injection, schedule: Q01DX009 (ip), vehicle: Klucel (hydroxypropylcellulose) (HPC)): 70 % of control | T/C (endpoint: median survival time, dose: 8.0 mg/kg/injection, schedule: Q03HX016 (ip), vehicle: saline with Tween-80): 106 % of control | T/C (endpoint: median survival time, dose: 8.0 mg/kg/injection, schedule: Q03HX024 (ip), vehicle: saline with Tween-80): 115 % of control | T/C (endpoint: median survival time, dose: 16.0 mg/kg/injection, schedule: Q03HX016 (ip), vehicle: saline with Tween-80): 112 % of control | T/C (endpoint: median survival time, dose: 16.0 mg/kg/injection, schedule: Q03HX024 (ip), vehicle: saline with Tween-80): 124 % of control | T/C (endpoint: median survival time, dose: 32.0 mg/kg/injection, schedule: Q03HX016 (ip), vehicle: saline with Tween-80): 123 % of control | T/C (endpoint: median survival time, dose: 64.0 mg/kg/injection, schedule: Q04DX003 (ip), vehicle: saline with Tween-80): 116 % of control | T/C (endpoint: median survival time, dose: 64.0 mg/kg/injection, schedule: Q08DX002 (ip), vehicle: saline with Tween-80): 105 % of control | T/C (endpoint: median survival time, dose: 128.0 mg/kg/injection, schedule: Q04DX003 (ip), vehicle: saline with Tween-80): 123 % of control | T/C (endpoint: median survival time, dose: 128.0 mg/kg/injection, schedule: Q08DX002 (ip), vehicle: saline with Tween-80): 112 % of control | T/C (endpoint: median survival time, dose: 256.0 mg/kg/injection, schedule: Q01DX009 (ip), vehicle: saline with Tween-80): 120 % of control | T/C (endpoint: median survival time, dose: 256.0 mg/kg/injection, schedule: Q08DX002 (ip), vehicle: saline with Tween-80): 112 % of control | T/C (endpoint: median survival time, dose: 512.0 mg/kg/injection, schedule: Q08DX002 (ip), vehicle: saline with Tween-80): 156 % of control

Nc1ccnnc1
T/C (endpoint: mean survival time, dose: 100.0 mg/kg/injection, schedule: Q04DX003 (ip), vehicle: saline): 98 % of control | T/C (endpoint: mean survival time, dose: 200.0 mg/kg/injection, schedule: Q04DX003 (ip), vehicle: saline): 101 % of control

N=Cc1c(O)n(C2CCCCC2)c(=O)[nH]c1=O
T/C [1]: 98 % of control | T/C [2]: 93 % of control | T/C [3]: 94 % of control | T/C [4]: 93 % of control | T/C (endpoint: mean survival time, dose: 400.0 mg/kg/injection, schedule: Q01DX009 (ip), vehicle: saline with Tween-80): 98 % of control | T/C [5]: 91 % of control
